Experimental data as given in paper PMC8074287, “Analgesic and Anticancer Activity of Benzoxazole Clubbed 2-Pyrrolidinones as Novel Inhibitors of Monoacylglycerol Lipase” (Molecules, 2021).

Tests used:
Test in all cases: NCI60 single-dose SRB assay
Type in all cases: cell-based, human
NCI-H23 = conditions: NCI-H23, Non-Small Cell Lung Cancer, 10 μM
Experimental: (§1) Compounds 19 and 20 were supplied to National Cancer Institute (USA), for sulforhodamine B (SRB) assay and anticancer screening. Single-dose (10 µM) assay results for compounds 19 and 20 were provided as a mean of percent growth (% G) and growth inhibition (% GI) against 60 cell lines of nine types of cancers and are tabulated in Table 4. […] Both the compounds 19 and 20 were also found active on UO-31 renal cancer cell line with % GI of 21.18 and 29.95, respectively.
(§2) Compounds 19 and 20 were supplied to National Cancer Institute (Bethesda, Maryland, USA), for in vitro sulforhodamine B (SRB) assay, anticancer screening on 60 cell lines of cancers of leukemia, melanoma, and tumors of the kidney, brain, breast, lung, colon, ovary, and prostate, as per their standard protocol. One dose anticancer results (NCI, USA) of compounds 19 and 20 are provided in the Supplementary Materials.

CAKI-1 = conditions: CAKI-1, Renal Cancer, 10 μM
Experimental: as §1, §2

HCT-116 = conditions: HCT-116, Colon Cancer, 10 μM
Experimental: as §1, §2

MDA-MB-468 = conditions: MDA-MB-468, Breast Cancer, 10 μM
Experimental: as §1, §2

UACC-62 = conditions: UACC-62, Melanoma, 10 μM
Experimental: as §1, §2

IGROV1 = conditions: IGROV1, Ovarian Cancer, 10 μM
Experimental: as §1, §2

MALME-3M = conditions: Melanoma, 10 μM
Experimental: as §1, §2

ACHN = conditions: Renal Cancer, 10 μM
Experimental: as §1, §2

MCF7 = conditions: MCF7, Breast Cancer, 10 μM
Experimental: as §1, §2

SR = conditions: Leukemia, 10 μM
Experimental: as §1, §2

SF-268 = conditions: SF-268, CNS Cancer, 10 μM
Experimental: as §1, §2

OVCAR-3 = conditions: OVCAR-3, Ovarian Cancer, 10 μM
Experimental: as §1, §2

OVCAR-4 = conditions: OVCAR-4, Ovarian Cancer, 10 μM
Experimental: as §1, §2

SK-MEL-28 = conditions: SK-MEL-28, Melanoma, 10 μM
Experimental: as §1, §2

HCC-2998 = conditions: HCC-2998, Colon Cancer, 10 μM
Experimental: as §1, §2

CCRF-CEM = conditions: Leukemia, 10 μM
Experimental: as §1, §2

PC-3 = conditions: PC-3, Prostate Cancer, 10 μM
Experimental: as §1, §2

UACC-257 = conditions: UACC-257, Melanoma, 10 μM
Experimental: as §1, §2

NCI-H460 = conditions: NCI-H460, Non-Small Cell Lung Cancer, 10 μM
Experimental: as §1, §2

SNB-19 = conditions: SNB-19, CNS Cancer, 10 μM
Experimental: as §1, §2

NCI-H322M = conditions: Non-Small Cell Lung Cancer, 10 μM
Experimental: as §1, §2

OVCAR-5 = conditions: OVCAR-5, Ovarian Cancer, 10 μM
Experimental: as §1, §2

HT29 = conditions: HT29, Colon Cancer, 10 μM
Experimental: as §1, §2

SN12C = conditions: Renal Cancer, 10 μM
Experimental: as §1, §2

SF-295 = conditions: SF-295, CNS Cancer, 10 μM
Experimental: as §1, §2

Question: How did the “% G” value (NCI-H23) turn out when O=C1CC(c2nc3ccccc3o2)CN1c1ccc([N+](=O)[O-])cc1 (stereo not drawn) [Compound 19, 4-(Benzo[d]oxazol-2-yl)-1-(4-nitrophenyl)pyrrolidin-2-one] was run?
Answer: 93.07%

Question: And the “% GI” value (NCI-H23)?
Answer: 6.93%

Question: And the “% G” value (CAKI-1)?
Answer: 97.19%

Question: What about the “% GI” value (CAKI-1) of the same compound?
Answer: 2.81%

Question: What about the “% G” value (HCT-116) of the same compound?
Answer: 102.14%

Question: What about the “% GI” value (HCT-116) of the same compound?
Answer: −2.14%

Question: What about the “% G” value (MDA-MB-468) of the same compound?
Answer: 98.03%

Question: What about the “% GI” value (MDA-MB-468) of the same compound?
Answer: 1.97%

Question: What about the “% G” value (UACC-62) of the same compound?
Answer: 97.59%

Question: What about the “% GI” value (UACC-62) of the same compound?
Answer: 2.41%

Question: What about the “% G” value (IGROV1) of the same compound?
Answer: 104.14%

Question: And the “% GI” value (IGROV1)?
Answer: −4.14%

Question: And the “% G” value (MALME-3M)?
Answer: 88.53%

Question: What about the “% GI” value (MALME-3M) of the same compound?
Answer: 11.47%

Question: And the “% G” value (ACHN)?
Answer: 91.70%

Question: What about the “% GI” value (ACHN) of the same compound?
Answer: 8.3%

Question: What about the “% G” value (MCF7) of the same compound?
Answer: 99.19%

Question: And the “% GI” value (MCF7)?
Answer: 0.81%

Question: And the “% G” value (SR)?
Answer: 88.92%

Question: And the “% GI” value (SR)?
Answer: 11.08%

Question: And the “% G” value (SF-268)?
Answer: 91.85%

Question: What about the “% GI” value (SF-268) of the same compound?
Answer: 8.15%

Question: What about the “% G” value (OVCAR-3) of the same compound?
Answer: 98.56%

Question: What about the “% GI” value (OVCAR-3) of the same compound?
Answer: 1.44%

Question: What about the “% G” value (OVCAR-4) of the same compound?
Answer: 106.27%

Question: And the “% GI” value (OVCAR-4)?
Answer: −6.27%

Question: And the “% G” value (SK-MEL-28)?
Answer: 111.25%

Question: And the “% GI” value (SK-MEL-28)?
Answer: −11.25%

Question: What about the “% G” value (HCC-2998) of the same compound?
Answer: 102.05%

Question: What about the “% GI” value (HCC-2998) of the same compound?
Answer: −2.05%

Question: What about the “% G” value (CCRF-CEM) of the same compound?
Answer: 93.58%

Question: What about the “% GI” value (CCRF-CEM) of the same compound?
Answer: 6.42%

Question: And the “% G” value (PC-3)?
Answer: 91.14%

Question: What about the “% GI” value (PC-3) of the same compound?
Answer: 8.86%

Question: What about the “% G” value (UACC-257) of the same compound?
Answer: 106.92%

Question: What about the “% GI” value (UACC-257) of the same compound?
Answer: −6.92%

Question: What about the “% G” value (NCI-H460) of the same compound?
Answer: 102.33%

Question: What about the “% GI” value (NCI-H460) of the same compound?
Answer: −2.33%

Question: And the “% G” value (SNB-19)?
Answer: 99.29%

Question: What about the “% GI” value (SNB-19) of the same compound?
Answer: 0.71%

Question: And the “% G” value (NCI-H322M)?
Answer: 94.18%

Question: What about the “% GI” value (NCI-H322M) of the same compound?
Answer: 5.82%

Question: What about the “% G” value (OVCAR-5) of the same compound?
Answer: 98.30%

Question: What about the “% GI” value (OVCAR-5) of the same compound?
Answer: 1.70%

Question: What about the “% G” value (HT29) of the same compound?
Answer: 99.25%

Question: And the “% GI” value (HT29)?
Answer: 0.75%

Question: What about the “% G” value (SN12C) of the same compound?
Answer: 97.21%

Question: And the “% GI” value (SN12C)?
Answer: 2.79%

Question: What about the “% G” value (SF-295) of the same compound?
Answer: 98.21%

Question: What about the “% GI” value (SF-295) of the same compound?
Answer: 1.79%

Question: How did the “% G” value (NCI-H23) turn out when NS(=O)(=O)c1ccc(N2CC(c3nc4ccccc4o3)CC2=O)cc1 (stereo not drawn) [Compound 20, 4-(4-(Benzo[d]oxazol-2-yl)-2-oxopyrrolidin-1-yl)benzenesulfonamide] was run?
Answer: 92.19%

Question: What about the “% GI” value (NCI-H23) of the same compound?
Answer: 7.81%

Question: And the “% G” value (CAKI-1)?
Answer: 92.35%

Question: What about the “% GI” value (CAKI-1) of the same compound?
Answer: 7.65%

Question: And the “% G” value (HCT-116)?
Answer: 95.78%

Question: And the “% G” value (MDA-MB-468)?
Answer: 100.34%

Question: What about the “% GI” value (MDA-MB-468) of the same compound?
Answer: −0.34%

Question: And the “% G” value (UACC-62)?
Answer: 92.78%

Question: And the “% GI” value (UACC-62)?
Answer: 7.22%

Question: And the “% G” value (IGROV1)?
Answer: 101.63%

Question: What about the “% GI” value (IGROV1) of the same compound?
Answer: −1.63%

Question: What about the “% G” value (MALME-3M) of the same compound?
Answer: 93.29%

Question: And the “% GI” value (MALME-3M)?
Answer: 6.71%

Question: What about the “% G” value (ACHN) of the same compound?
Answer: 89.48%

Question: What about the “% GI” value (ACHN) of the same compound?
Answer: 10.52%

Question: And the “% G” value (MCF7)?
Answer: 92.32%

Question: And the “% GI” value (MCF7)?
Answer: 7.68%

Question: What about the “% G” value (SR) of the same compound?
Answer: 93.20%

Question: What about the “% GI” value (SR) of the same compound?
Answer: 6.80%

Question: And the “% G” value (SF-268)?
Answer: 87.43%

Question: What about the “% GI” value (SF-268) of the same compound?
Answer: 12.57%

Question: What about the “% G” value (OVCAR-3) of the same compound?
Answer: 98.53%

Question: And the “% GI” value (OVCAR-3)?
Answer: 1.47%

Question: What about the “% G” value (OVCAR-4) of the same compound?
Answer: 99.47%

Question: And the “% GI” value (OVCAR-4)?
Answer: 0.53%

Question: What about the “% G” value (SK-MEL-28) of the same compound?
Answer: 101.79%

Question: What about the “% GI” value (SK-MEL-28) of the same compound?
Answer: −1.79%

Question: What about the “% G” value (HCC-2998) of the same compound?
Answer: 100.24%

Question: What about the “% GI” value (HCC-2998) of the same compound?
Answer: −0.24%

Question: What about the “% G” value (CCRF-CEM) of the same compound?
Answer: 94.48%

Question: What about the “% GI” value (CCRF-CEM) of the same compound?
Answer: 5.52%

Question: What about the “% G” value (PC-3) of the same compound?
Answer: 88.11%

Question: And the “% GI” value (PC-3)?
Answer: 11.89%

Question: And the “% G” value (UACC-257)?
Answer: 110.78%

Question: What about the “% GI” value (UACC-257) of the same compound?
Answer: −10.78%

Question: And the “% G” value (NCI-H460)?
Answer: 104.20%

Question: And the “% GI” value (NCI-H460)?
Answer: −4.20%

Question: And the “% G” value (SNB-19)?
Answer: 97.02%

Question: What about the “% GI” value (SNB-19) of the same compound?
Answer: 2.98%

Question: And the “% G” value (NCI-H322M)?
Answer: 99.10%

Question: What about the “% GI” value (NCI-H322M) of the same compound?
Answer: 0.90%

Question: What about the “% G” value (OVCAR-5) of the same compound?
Answer: 92.08%

Question: And the “% GI” value (OVCAR-5)?
Answer: 7.92%

Question: What about the “% G” value (HT29) of the same compound?
Answer: 103.23%

Question: And the “% GI” value (HT29)?
Answer: −3.23%

Question: And the “% G” value (SN12C)?
Answer: 95.50%

Question: What about the “% GI” value (SN12C) of the same compound?
Answer: 4.50%

Question: And the “% G” value (SF-295)?
Answer: 93.71%

Question: And the “% GI” value (SF-295)?
Answer: 6.29%
